The numbers were not newly measured in patent US20110268774A1, “PREPARATION OF STEM CELLS WITH REPROGRAMMED CELL SIGNALLING, A METHOD OF PRODUCING THE PREPARATION AND A METHOD OF USE THEREOF” (priority 2008, published 2011), which cites them from elsewhere.

The target of the data set is Protein produced by HER2/neu gene (Homo sapiens, UniProt P04626). As to conditions: breast cancer.
Sequence of Protein produced by HER2/neu gene (P04626 23-1255): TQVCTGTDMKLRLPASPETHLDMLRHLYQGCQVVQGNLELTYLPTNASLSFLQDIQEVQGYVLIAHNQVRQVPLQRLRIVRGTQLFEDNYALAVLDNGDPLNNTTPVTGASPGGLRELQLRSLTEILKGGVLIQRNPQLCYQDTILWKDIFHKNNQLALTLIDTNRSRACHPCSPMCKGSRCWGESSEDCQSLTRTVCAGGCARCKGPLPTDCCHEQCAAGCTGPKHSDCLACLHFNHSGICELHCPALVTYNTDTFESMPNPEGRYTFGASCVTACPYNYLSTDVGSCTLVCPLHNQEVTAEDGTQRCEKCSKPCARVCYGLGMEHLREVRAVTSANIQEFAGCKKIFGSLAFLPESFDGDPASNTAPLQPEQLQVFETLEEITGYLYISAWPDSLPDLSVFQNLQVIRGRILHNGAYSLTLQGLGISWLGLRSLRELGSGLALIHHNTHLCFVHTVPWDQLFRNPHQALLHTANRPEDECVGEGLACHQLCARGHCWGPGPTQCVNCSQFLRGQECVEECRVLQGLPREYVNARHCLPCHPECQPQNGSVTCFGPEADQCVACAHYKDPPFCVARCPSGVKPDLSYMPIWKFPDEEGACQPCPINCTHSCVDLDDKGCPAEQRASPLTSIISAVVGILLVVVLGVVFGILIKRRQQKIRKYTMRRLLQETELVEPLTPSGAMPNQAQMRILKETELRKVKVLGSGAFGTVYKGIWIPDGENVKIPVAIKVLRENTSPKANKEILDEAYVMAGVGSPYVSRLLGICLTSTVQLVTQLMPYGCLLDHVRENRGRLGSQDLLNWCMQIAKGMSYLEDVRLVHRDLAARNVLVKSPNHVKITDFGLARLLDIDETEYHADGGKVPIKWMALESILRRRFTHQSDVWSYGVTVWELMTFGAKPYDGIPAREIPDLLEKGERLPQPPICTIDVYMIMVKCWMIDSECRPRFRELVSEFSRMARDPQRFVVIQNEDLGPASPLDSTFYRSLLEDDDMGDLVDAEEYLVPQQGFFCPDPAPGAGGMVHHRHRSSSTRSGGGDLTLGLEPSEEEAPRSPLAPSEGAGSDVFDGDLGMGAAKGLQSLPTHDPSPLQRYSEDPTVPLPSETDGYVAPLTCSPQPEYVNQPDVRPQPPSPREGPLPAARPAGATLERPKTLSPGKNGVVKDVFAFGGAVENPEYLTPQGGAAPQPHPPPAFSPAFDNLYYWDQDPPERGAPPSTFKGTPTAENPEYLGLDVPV

`CS(=O)(=O)CCNCc1ccc(-c2ccc3ncnc(Nc4ccc(OCc5cccc(F)c5)c(Cl)c4)c3c2)o1` [Tykerb]: the recovery is 63%. The “CSC percentage in tumour” value (from 11%) is 5%.
